Laboratory results published in PubChem BioAssay (NCI).
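Growth conditions: 96-well plates. Treatment: test compound, 48 hours, 5 concentrations. Analysis: linear interpolation between bracketing concentrations; unreached endpoints set to highest concentration. At the TGI there is no net growth.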

Experiments:
Experiment in all cases: growth of human tumour cells (NCI), 48 h
NCI-H460 lung = tested on: NCI-H460 lung
OVCAR-4 ovarian = tested on: OVCAR-4 ovarian
RPMI-8226 leukemia = tested on: RPMI-8226 leukemia
SK-MEL-28 melanoma = tested on: SK-MEL-28 melanoma
HOP-92 NSCLC = tested on: HOP-92 NSCLC
OVCAR-8 ovarian = tested on: OVCAR-8 ovarian
UACC-62 melanoma = tested on: UACC-62 melanoma
MALME-3M melanoma = tested on: MALME-3M melanoma
HCT-15 colon = tested on: HCT-15 colon
KM20L2 colon = tested on: KM20L2 colon
SNB-78 CNS = tested on: SNB-78 CNS
DLD-1 colon = tested on: DLD-1 colon
M19-MEL melanoma = tested on: M19-MEL melanoma
LXFL 529 NSCLC = tested on: LXFL 529 NSCLC
XF 498 CNS = tested on: XF 498 CNS
HOP-18 NSCLC = tested on: HOP-18 NSCLC
DMS 114 small cell lung = tested on: DMS 114 small cell lung
DMS 273 small cell lung = tested on: DMS 273 small cell lung

Compound	TGI (NCI-H460 lung) [µM]	TGI (OVCAR-4 ovarian) [µM]	TGI (RPMI-8226 leukemia) [µM]	TGI (SK-MEL-28 melanoma) [µM]	TGI (HOP-92 NSCLC) [µM]	TGI (OVCAR-8 ovarian) [µM]	TGI (UACC-62 melanoma) [µM]	TGI (MALME-3M melanoma) [µM]	TGI (HCT-15 colon) [µM]	TGI (KM20L2 colon) [µM]	TGI (SNB-78 CNS) [µM]	TGI (DLD-1 colon) [µM]	TGI (M19-MEL melanoma) [µM]	TGI (LXFL 529 NSCLC) [µM]	TGI (XF 498 CNS) [µM]	TGI (HOP-18 NSCLC) [µM]	TGI (DMS 114 small cell lung) [µM]	TGI (DMS 273 small cell lung) [µM]
CCc1c(Cc2cc(C)cc(C)c2)n2c(nc1=O)SCC2CBr (stereo not given)	> 50	> 50	> 50	> 50	> 50	40.4	> 50	> 50	> 50	–	–	–	–	–	–	–	–	–
Cc1c(C)c2c(c(N)c1C#N)C(=O)N(CCN1CCNCC1)C2=O	> 100	> 100	> 100	> 100	> 100	> 100	62.4	73.1	> 100	–	–	–	–	–	–	–	–	–
O=C(c1cccc(C(=O)c2ccc3c4c(cccc24)C(=O)N(c2ccccc2)C3=O)c1)c1ccc2c3c(cccc13)C(=O)N(c1ccccc1)C2=O	> 100	> 100	> 100	> 100	> 100	> 100	> 100	> 100	> 100	–	–	–	–	–	–	–	–	–
CCOC(=O)/C=C(/C(=O)OCC)n1ccc(=O)n(/C(=C/C(=O)OCC)C(=O)OCC)c1=O	34.3	30.6	7.08	27.9	4.11	23.2	28.3	8.15	6.32	–	–	–	–	–	–	–	–	–
COc1cc(/C=C2/C(=O)N(C(=O)c3ccc(Cl)cc3)N=C2C)cc(OC)c1OC	> 100	> 100	> 100	> 100	> 100	> 100	> 100	> 100	> 100	> 100	> 100	> 100	> 100	> 100	> 100	–	–	–
C=CCNC1=C2C[C@@H](C)C[C@@H](OC)[C@H](OC(=O)CN)[C@H](C)/C=C(\C)[C@@H](OC(N)=O)[C@H](OC)/C=C\C=C(/C)C(=O)NC(=CC1=O)C2=O	18.3	29.2	> 52.3	29.7	8.71	18.3	12	21.8	22.5	–	–	–	–	–	–	–	–	–
[N-]=[N+]=NC(CBr)c1cn([C@H]2C[C@H](O)[C@@H](CO)O2)c(=O)[nH]c1=O (stereo not given in full)	> 100	–	> 100	> 100	> 100	> 100	> 100	> 100	> 100	> 100	> 100	> 100	> 100	> 100	–	> 100	> 100	> 100
CC1OC(OC2C(O)COC(OC3C(C)OC(OC4C(OC(=O)[C@]56CCC(C)(C)C[C@@H]5C5=CCC7[C@@]8(C)C[C@H](O)[C@H](OC9OC(CO)C(O)C(OC%10OC(CO)C(O)C(O)C%10O)C9O)[C@@](C)(CO)[C@@H]8CC[C@@]7(C)[C@]5(C)CC6)OCC(O)C4O)C(O)C3O)C2O)C(O)C(O)C1O (stereo not given in full)	40.2	34.4	51.8	22.9	38.4	32.8	39.8	30.8	38.7	–	–	–	–	–	–	–	–	–
COc1cc2cc(C(=O)N3CC(CCl)c4ccccc43)[nH]c2c(OC)c1OC (stereo not given)	> 57.4	> 100	> 100	> 100	> 100	> 100	> 100	> 100	> 100	–	–	–	–	–	–	–	–	–
C=CC(C)CCC(C/C=C(\C)CCC=C(C)C)C(=C)CCCC(C)C (stereo not given)	> 100	> 100	> 100	> 100	> 100	> 100	> 100	> 100	> 100	–	–	–	–	–	–	–	–	–
COc1cc(/C=C/c2cc(/C=C/c3ccc(O)c(OC)c3)oc(=O)c2)ccc1O	7.63	13.6	> 20.5	> 100	32.6	> 100	18.5	10.7	> 34.4	–	–	–	–	–	–	–	–	–
S=c1sc2nc(Cl)nc(Cl)c2s1	30.8	30.6	9.67	30.4	17.4	29.8	27.1	23.2	30.7	–	–	–	–	–	–	–	–	–
C=CCN(C)CN(C)c1nc(N(C)C)nc(N(C)C)n1	> 100	> 100	> 100	> 100	> 100	> 100	> 100	> 100	> 100	> 100	> 100	> 100	> 100	89	–	> 100	42.7	> 100
N#CCCN(CCN(C(=O)Nc1ccccc1)c1ccccc1)C(=O)Nc1ccccc1	> 100	> 100	> 69.2	> 100	> 100	> 100	> 100	> 100	> 100	–	–	–	–	–	–	–	–	–
Cn1ncnc1CCc1ccccc1	> 100	> 100	> 100	> 100	> 100	> 100	> 100	> 100	> 100	> 100	> 100	–	> 100	> 100	–	> 100	> 100	> 100
CC(C)C(/C=C/c1ccc(Br)cc1)=N\NC(N)=O	> 100	> 100	> 100	> 100	> 100	> 100	> 100	–	> 100	> 100	> 100	> 100	25.4	> 100	> 100	–	> 100	> 100
CCOC(=O)c1ccc(-n2c(SCC)nc3sc(C)c(C)c3c2=O)cc1	> 100	> 100	> 100	> 100	> 100	> 100	> 100	> 100	> 100	> 100	> 100	> 100	–	–	> 100	> 100	> 100	> 100
